Laboratory results published in ChEMBL document CHEMBL1201862, “PubChem BioAssay data set” (2004).
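Tested at 5 concentrations; 48 h exposure; 96-well plates; endpoints linearly interpolated, else capped at highest concentration. GI50 is the concentration that inhibits growth by half.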 The source made the active and inactive calls. No stated cut-off is given here; in the data, active = GI50 up to about 1.1 µM and inactive = higher.

Key:
Test in all cases: inhibition of tumour cell growth, NCI panel, 48 h
T47D = tested on: T47D
HOP-92 = tested on: HOP-92
A549 = tested on: A549
MCF7 = tested on: MCF7
SF-268 = tested on: SF-268
SR = tested on: SR
HCT-116 = tested on: HCT-116
ACHN = tested on: ACHN
EKVX = tested on: EKVX
MDA-MB-231 = tested on: MDA-MB-231
SK-MEL-28 = tested on: SK-MEL-28
A498 = tested on: A498
SN12C = tested on: SN12C
SK-MEL-2 = tested on: SK-MEL-2
SF-295 = tested on: SF-295
SK-OV-3 = tested on: SK-OV-3
MDA-N = tested on: MDA-N
HT-29 = tested on: HT-29
CCRF-CEM = tested on: CCRF-CEM
NCI-H522 = tested on: NCI-H522

Measured: GI50

CC(=O)N1C(CCc2ccccc2)CC(C)(C=O)C1Cc1ccc(O[Si](C(C)C)(C(C)C)C(C)C)cc1 (stereo not given)
inactive: T47D 2.2 µM | HOP-92 9.71 µM | A549 3.87 µM | MCF7 2.05 µM | SF-268 4.19 µM | SR 2.09 µM | HCT-116 2.55 µM | ACHN 6.89 µM | EKVX 4.75 µM | MDA-MB-231 4.79 µM | SK-MEL-28 6.32 µM | A498 2.87 µM | SN12C 3.29 µM | SK-MEL-2 3.48 µM | SF-295 5.11 µM | SK-OV-3 13.4 µM | MDA-N 2.39 µM | HT-29 2.86 µM | CCRF-CEM 1.87 µM | NCI-H522 2.15 µM

Cc1ccc(SCN2CCCCC2)cc1.O=C(Cl)c1ccc([N+](=O)[O-])cc1
inactive: T47D 12.2 µM | HOP-92 9.18 µM | A549 21.2 µM | MCF7 6.55 µM | SF-268 5.98 µM | SR 4.24 µM | HCT-116 10.9 µM | ACHN 12.6 µM | EKVX 11.8 µM | MDA-MB-231 13.2 µM | SK-MEL-28 13.4 µM | A498 2.76 µM | SN12C 4.31 µM | SK-MEL-2 14.7 µM | SF-295 16 µM | SK-OV-3 12.9 µM | MDA-N 6.25 µM | HT-29 13.2 µM | CCRF-CEM 2.03 µM | NCI-H522 1.92 µM

NC12c3c4cccc3Oc3cccc(c31)Oc1cccc(c12)O4
inactive: T47D > 50 µM | HOP-92 > 50 µM | A549 > 50 µM | MCF7 > 50 µM | SF-268 > 50 µM | SR > 50 µM | HCT-116 > 50 µM | ACHN > 50 µM | EKVX > 50 µM | MDA-MB-231 > 50 µM | SK-MEL-28 > 50 µM | A498 > 50 µM | SN12C > 50 µM | SK-MEL-2 > 50 µM | SF-295 > 50 µM | SK-OV-3 > 50 µM | MDA-N > 50 µM | HT-29 > 50 µM | CCRF-CEM > 50 µM | NCI-H522 17.7 µM

O=C(O)c1cscc1Cc1cccs1
inactive: T47D > 100 µM | HOP-92 > 100 µM | A549 > 100 µM | MCF7 > 100 µM | SF-268 > 100 µM | SR > 100 µM | HCT-116 > 100 µM | ACHN > 100 µM | EKVX > 100 µM | MDA-MB-231 > 100 µM | SK-MEL-28 > 100 µM | A498 > 100 µM | SN12C > 100 µM | SK-MEL-2 > 100 µM | SF-295 > 100 µM | SK-OV-3 > 100 µM | MDA-N > 100 µM | HT-29 > 100 µM | CCRF-CEM > 100 µM | NCI-H522 > 100 µM

COc1ccc(-c2nc(O)c3ccccc3n2)cc1
inactive: T47D 84.5 µM | HOP-92 > 100 µM | A549 > 100 µM | MCF7 35.9 µM | SF-268 > 100 µM | SR 45.4 µM | HCT-116 77.1 µM | ACHN > 10 µM | EKVX > 100 µM | MDA-MB-231 40.8 µM | SK-MEL-28 43.6 µM | A498 47 µM | SN12C 61.2 µM | SK-MEL-2 > 100 µM | SF-295 > 100 µM | SK-OV-3 > 100 µM | MDA-N > 100 µM | HT-29 > 100 µM | CCRF-CEM > 100 µM | NCI-H522 52.7 µM
